≈ marks a conversion by molar mass, not a printed value. Read-outs that look alike come from different tables or passages of the source. Blank lines part the entries; values can stand above or below the molecule they belong to.
Experiments:
[1] = system: mouse melanoma B16 cells; assay: Influence of extract powder and other skin-whitening ingredients on melanin formation (Test 2 for in vitro skin-whitening effect, Experiment 4); format: cell-based; set-up: Judgement, 1.25% extract powder of indigo plant: key to the marks not given beside the values; settings: 72 hours
Protocol: The following experiment was conducted to examine the influence of an extract powder of indigo plant and other ingredients with skin-whitening action on melanin formation. Mouse melanoma B16 cells were cultured for 24 hours, and to the resulting culture was added any one of the test solutions to give a composition ratio (%) of each of […], followed by culturing for 72 hours. The viable cells were counted and packed into a capillary tube for color observation. The judgement of the effects was evaluated based on the same criterion as in Experiment 1. In this experiment system, the effect in the case of culturing the cells with addition of 0.025% of the extract powder of indigo extract was judged to be “+”.

[2] = system: A. actinomycetemcomitans; assay: Minimum inhibitory concentration (MIC), Experiment 13; format: cell-based, Actinobacillus actinomycetemcomitans; settings: for MIC: Aggregatibacter actinomycetemcomitans, read-out: Minimum inhibitory concentration (MIC)
Protocol: (§1) The following experiment was conducted to examine the influence of an extract powder of indigo plant on microorganisms in human oral cavity. An extract powder of indigo plant, prepared by the method in the later described Example 1, was dissolved in refined water to obtain an aqueous solution with a concentration of 1.5% indigo plant extract, d.s.b. Using the aqueous solution, the minimum inhibitory concentration (may be designated as “MIC”, hereinafter) against microorganisms in human oral cavity (microorganisms as causatives of periodontal diseases and dental caries) was determined. Tryptanthrin, gallic acid, and caffeic acid, which had been confirmed to be contained in the indigo extract, were determined for MIC against microorganisms in human oral cavity, and the data was shown in Table 9 in parallel. The following method was used for assaying MIC.
(§2) The MICs of an extract powder of indigo plant, tryptanthrin, gallic acid, and caffeic acid against microorganisms in human oral cavity were determined according to the standard method of Japanese Society of Chemotherapy (see “Saikin-Shinkin-Kensa (Test for Bacteria and Fungi), 2nd Edition”, pp. 524-529 (1982)). Examples of microorganisms, used as causatives of periodontal diseases, were microorganisms of Prophyromonas gingivalis strains such as JCM8525, JCM12257, and ATCC 33277 strains; those of Actinobacillus actinomycetemcomitans (may be abbreviated as “A. actinomycetemcomitans”) such as JCM2434 and JCM8577 strains; Prevotella intermedia (may be abbreviated as P. intermedia) JCM7365 strain; and Campylobacter rectus (may be abbreviated as C. rectus) JMC6301 strain. Examples of microorganisms, used as causatives of dental caries, were Streptococcus mutans strains such as OMZ-175, OMZ-176, OMZ-65, OMZ-61, B-13D, and Ingbritt strains; and Streptococcus sobrinus (may be abbreviated as “S. sobrinus”) 6715 strain. Among these microorganisms, those which are causatives of periodontal diseases were cultured at 37° C. for 48 hours, while those which are causatives of dental caries were cultured at 37° C. for 18 to 24 hours under anaerobic conditions by using a brain heart infusion (abbreviated as “BHI”, hereinafter), commercialized by Difco Laboratories, Detroit, USA, supplemented with 5 μg/ml of hemin, and 0.5 μg/ml of vitamin K3. The resulting cultures of the microorganisms, as causatives of both periodontal diseases and dental caries, were respectively diluted into solutions with 10^8 cells and 10^6 cells.

[3] = system: P. gingivalis; assay: as above; format: cell-based, Prophyromonas gingivalis; settings: for MIC: Porphyromonas gingivalis
Protocol: as §1, §2

[4] = system: S. sobrinus; assay: as above; format: cell-based; settings: Streptococcus sobrinus, read-out: Minimum inhibitory concentration (MIC)
Protocol: as §1, §2

[5] = system: S. mutans; assay: as above; format: cell-based; settings: Streptococcus mutans
Protocol: as §1, §2

[6] = system: C. rectus; assay: as above; format: cell-based; settings: Campylobacter rectus, read-out: Minimum inhibitory concentration (MIC)
Protocol: as §1, §2

[7] = system: P. intermedia; assay: as above; format: cell-based; settings: Prevotella intermedia, read-out: Minimum inhibitory concentration (MIC)
Protocol: as §1, §2

[8] = system: mouse melanoma B16 cells; assay: Influence on melanin formation, blackening of cells (Test 1 for in vitro whitening effect, Experiment 3); format: cell-based; settings: medium containing 2.5 mM; cultured 72 hours
Protocol: Using a dried leaf of Polygonum tinctorium Lour., Japanese knotweed, buckwheat, or knotgrass as a plant of the family Polygonaceae, extract powders of which were prepared. The extract powders of indigo plant were prepared by the method in later described Example 2. According to the same method as in Example 2, using a dried leaf of Japanese knotweed, buckwheat, or knotgrass in place of the one of Polygonum tinctorium Lour., extract powders of the above plants were prepared for use in the following experiment, where, as an extract powder of indigo plant, the one prepared by the method in later described Example 2 was used, unless specified otherwise. […] After counting the number of viable cells, the viable cells were packed into a capillary tube for color observation. […] The degree of blackening of the B16 cells was evaluated based on the following criterion, and the results are in Table 3. Evaluations with Reference to the Blackening Degree of Control Free of Agent: −: Unchanged; ±: Slight inhibition of blackening; +: Positive inhibition of blackening; ++: Clear inhibition of blackening; +++: Complete inhibition of blackening.

[9] = ingredient 0.5% in combination with extract powder of indigo plant
[10] = strain JMC12257, read-out: Minimum inhibitory concentration (MIC)
[11] = strain B-13D, read-out: Minimum inhibitory concentration (MIC)
[12] = strain Ingbritt, read-out: Minimum inhibitory concentration (MIC)
[13] = strain OMZ-61, read-out: Minimum inhibitory concentration (MIC)
[14] = strain OMZ-65, read-out: Minimum inhibitory concentration (MIC)
[15] = strain OMZ-175, read-out: Minimum inhibitory concentration (MIC)
[16] = strain OMZ-176, read-out: Minimum inhibitory concentration (MIC)
[17] = ingredient 1.0% in combination with extract powder of indigo plant

Compound: CCCCc1ccc(O)cc1O [4-n-Butylresorcinol]
Judgement, With no extract powder of indigo plant ([1]; composition ratio 0.5%): +
Judgement, 1.25% extract powder of indigo plant [1, 9]: +++

MIC ([2]; strain JMC2434): 800 µg/mL (≈ 4700 µM)
MIC ([2]; strain JMC8577): 800 µg/mL (≈ 4700 µM)
MIC [3, 10]: 400 µg/mL (≈ 2350 µM)
Minimum inhibitory concentration (MIC) ([3]; strain JCM8525): 400 µg/mL (≈ 2350 µM)
Minimum inhibitory concentration (MIC) ([3]; strain JMC33277): 400 µg/mL (≈ 2350 µM)
MIC ([4]; strain 6715): 800 µg/mL (≈ 4700 µM)
MIC [5, 11]: 200 µg/mL (≈ 1180 µM)
MIC [5, 12]: 1600 µg/mL (≈ 9410 µM)
MIC [5, 13]: 200 µg/mL (≈ 1180 µM)
MIC [5, 14]: 1600 µg/mL (≈ 9410 µM)
MIC [5, 15]: 400 µg/mL (≈ 2350 µM)
MIC [5, 16]: 400 µg/mL (≈ 2350 µM)
MIC ([6]; strain JMC6301): 400 µg/mL (≈ 2350 µM)
MIC ([7]; strain JMC7365): 400 µg/mL (≈ 2350 µM)
Compound: O=C(O)c1cc(O)c(O)c(O)c1 [Gallic acid]

Compound: O=C1c2ccccc2-n2c1nc1ccccc1c2=O [Tryptanthrin]
MIC [2]: 25 µg/mL (≈ 101 µM)
Minimum inhibitory concentration (MIC) ([2]; strain JMC2434): 25 µg/mL (≈ 101 µM)
MIC ([3]; read-out: Minimum inhibitory concentration (MIC), strain JMC8525): 6.25 µg/mL (≈ 25.2 µM)
MIC ([3]; read-out: Minimum inhibitory concentration (MIC), strain JMC12257): 12.5 µg/mL (≈ 50.4 µM)
MIC ([3]; read-out: Minimum inhibitory concentration (MIC), strain JMC33277): 12.5 µg/mL (≈ 50.4 µM)
MIC [4]: 25 µg/mL (≈ 101 µM)
MIC ([5]; read-out: Minimum inhibitory concentration (MIC), strain B-13D): 6.25 µg/mL (≈ 25.2 µM)
MIC ([5]; read-out: Minimum inhibitory concentration (MIC), strain Ingbritt): 25 µg/mL (≈ 101 µM)
MIC ([5]; read-out: Minimum inhibitory concentration (MIC), strain OMZ-61): 6.25 µg/mL (≈ 25.2 µM)
MIC ([5]; read-out: Minimum inhibitory concentration (MIC), strain OMZ-65): 12.5 µg/mL (≈ 50.4 µM)
MIC ([5]; read-out: Minimum inhibitory concentration (MIC), strain OMZ-175): 6.25 µg/mL (≈ 25.2 µM)
MIC ([5]; read-out: Minimum inhibitory concentration (MIC), strain OMZ-176): 12.5 µg/mL (≈ 50.4 µM)
MIC [6]: 25 µg/mL (≈ 101 µM)
MIC [7]: 6.25 µg/mL (≈ 25.2 µM)

Compound: O=c1cc(CO)occ1O [Kojic acid]
Judgement, With no extract powder of indigo plant ([1]; composition ratio 1.0%): +
Judgement, 1.25% extract powder of indigo plant [1, 17]: +++
Judgement (inhibition of blackening of B16 cells) [8]: +

Compound: O=c1oc2c(O)c(O)cc3c(=O)oc4c(O)c(O)cc1c4c23 [Ellagic acid]
Judgement, With no extract powder of indigo plant ([1]; composition ratio 0.5%): ±
Judgement, 1.25% extract powder of indigo plant [1, 9]: ++

MIC ([2]; strain JMC2434): 400 µg/mL (≈ 2220 µM)
MIC ([2]; strain JMC8577): 200 µg/mL (≈ 1110 µM)
MIC [3, 10]: 400 µg/mL (≈ 2220 µM)
Minimum inhibitory concentration (MIC) ([3]; strain JCM8525): 400 µg/mL (≈ 2220 µM)
Minimum inhibitory concentration (MIC) ([3]; strain JMC33277): 400 µg/mL (≈ 2220 µM)
MIC ([4]; strain 6715): 800 µg/mL (≈ 4440 µM)
MIC [5, 11]: 200 µg/mL (≈ 1110 µM)
MIC [5, 12]: 1600 µg/mL (≈ 8880 µM)
MIC [5, 13]: 400 µg/mL (≈ 2220 µM)
MIC [5, 14]: 200 µg/mL (≈ 1110 µM)
MIC [5, 15]: 400 µg/mL (≈ 2220 µM)
MIC [5, 16]: 800 µg/mL (≈ 4440 µM)
MIC ([6]; strain JMC6301): 100 µg/mL (≈ 555 µM)
MIC ([7]; strain JMC7365): 400 µg/mL (≈ 2220 µM)
Compound: O=C(O)/C=C/c1ccc(O)c(O)c1 [Caffeic acid]

Compound: COc1ccc(C(=O)[O-])c(O)c1.[K+] [4-Methoxysalicylic acid potassium salt]
Judgement, With no extract powder of indigo plant ([1]; composition ratio 1.0%): +
Judgement, 1.25% extract powder of indigo plant [1, 17]: +++

Compound: CCCCC/C=C\C/C=C\CCCCCCCC(=O)O [Linoleic acid]
Judgement, With no extract powder of indigo plant ([1]; composition ratio 0.5%): ±
Judgement, 1.25% extract powder of indigo plant [1, 9]: ++

Compound: COc1cc(CCC(=O)CC(=O)CCc2ccc(O)c(OC)c2)ccc1O [Tetrahydrocurcumin]
Judgement, With no extract powder of indigo plant ([1]; composition ratio 0.5%): ±
Judgement, 1.25% extract powder of indigo plant [1, 9]: ++

Compound: NC[C@H]1CC[C@H](C(=O)O)CC1 [Tranexamic acid]
Judgement, With no extract powder of indigo plant ([1]; composition ratio 1.0%): ±
Judgement, 1.25% extract powder of indigo plant [1, 17]: ++

Compound: OC[C@H]1O[C@@H](Oc2ccc(O)cc2)[C@H](O)[C@@H](O)[C@@H]1O [Arbutin]
Judgement, With no extract powder of indigo plant ([1]; composition ratio 0.5%): +
Judgement, 1.25% extract powder of indigo plant [1, 9]: +++

Compound: O=C1O[C@H]([C@@H](O)CO)C([O-])=C1O.[Na+] [Sodium L-ascorbate]
Judgement, With no extract powder of indigo plant ([1]; composition ratio 2.0%): +
Judgement, 1.25% extract powder of indigo plant ([1]; ingredient 2.0% in combination with extract powder of indigo plant): +++

Source: US20100034757A1, “EXTRACT POWDER OF INDIGO PLANT, AND ITS PREPARATION AND USES” (priority 2006, published 2010)
